Experimental data from article PMC10930102 (Journal of Enzyme Inhibition and Medicinal Chemistry, 2024).

Tests used:
Assay type in all cases: biochemical
HDAC1 = biological target: T1, HDAC1 (Homo sapiens, UniProt Q13547); test: HDAC inhibition assay (fluorogenic peptide, Reaction Biology); details: tested once, ten-dose starting at 30 µM
T1 construct: purchased Reaction Biology Corporation; host or cells: baculovirus expression system in SF9 cells

HDAC6 = biological target: T2, HDAC6 (Homo sapiens, UniProt Q9UBN7); test: as above; details: tested once, ten-dose starting at 30 µM
T2 construct: purchased Reaction Biology Corporation; host or cells: baculovirus expression system in SF9 cells
T2 sequence (Q9UBN7 1-1215): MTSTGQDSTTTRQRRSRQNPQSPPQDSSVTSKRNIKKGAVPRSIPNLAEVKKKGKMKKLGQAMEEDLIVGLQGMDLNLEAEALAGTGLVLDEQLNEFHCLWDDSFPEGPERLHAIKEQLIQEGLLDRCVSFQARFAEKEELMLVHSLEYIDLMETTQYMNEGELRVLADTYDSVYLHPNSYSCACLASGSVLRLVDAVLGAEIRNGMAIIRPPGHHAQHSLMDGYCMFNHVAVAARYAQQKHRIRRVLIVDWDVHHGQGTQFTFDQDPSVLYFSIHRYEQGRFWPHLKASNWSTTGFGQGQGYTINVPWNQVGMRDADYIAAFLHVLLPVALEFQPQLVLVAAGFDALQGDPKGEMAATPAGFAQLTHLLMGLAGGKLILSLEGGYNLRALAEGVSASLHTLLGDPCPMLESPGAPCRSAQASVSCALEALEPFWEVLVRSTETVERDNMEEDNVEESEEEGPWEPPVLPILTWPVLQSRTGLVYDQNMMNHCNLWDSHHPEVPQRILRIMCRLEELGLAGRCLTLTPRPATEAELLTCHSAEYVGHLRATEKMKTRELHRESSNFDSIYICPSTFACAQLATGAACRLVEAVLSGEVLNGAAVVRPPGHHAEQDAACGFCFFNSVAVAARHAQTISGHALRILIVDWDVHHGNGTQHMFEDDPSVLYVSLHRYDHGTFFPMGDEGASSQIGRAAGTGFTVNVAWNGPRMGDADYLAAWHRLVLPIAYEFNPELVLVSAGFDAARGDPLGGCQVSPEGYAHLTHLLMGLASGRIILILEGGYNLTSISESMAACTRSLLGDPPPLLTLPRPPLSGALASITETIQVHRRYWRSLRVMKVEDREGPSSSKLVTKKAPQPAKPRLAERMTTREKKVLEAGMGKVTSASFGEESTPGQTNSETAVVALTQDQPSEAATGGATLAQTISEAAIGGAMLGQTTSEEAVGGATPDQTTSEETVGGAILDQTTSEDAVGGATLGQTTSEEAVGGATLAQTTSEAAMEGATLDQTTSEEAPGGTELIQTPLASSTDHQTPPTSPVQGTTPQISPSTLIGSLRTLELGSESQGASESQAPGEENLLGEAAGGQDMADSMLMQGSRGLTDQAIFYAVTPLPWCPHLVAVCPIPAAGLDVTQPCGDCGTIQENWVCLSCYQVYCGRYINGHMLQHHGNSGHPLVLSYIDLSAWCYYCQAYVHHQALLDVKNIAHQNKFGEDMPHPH

ALK G1269A = biological target: T3, ALK G1269A (Homo sapiens, UniProt Q9UM73, G1269A); test: ALK mutant in vitro enzymatic assay; details: 20 μM ATP
T3 construct: purchased Reaction Biology Corporation
T3 sequence (Q9UM73 19-1620 G1269A): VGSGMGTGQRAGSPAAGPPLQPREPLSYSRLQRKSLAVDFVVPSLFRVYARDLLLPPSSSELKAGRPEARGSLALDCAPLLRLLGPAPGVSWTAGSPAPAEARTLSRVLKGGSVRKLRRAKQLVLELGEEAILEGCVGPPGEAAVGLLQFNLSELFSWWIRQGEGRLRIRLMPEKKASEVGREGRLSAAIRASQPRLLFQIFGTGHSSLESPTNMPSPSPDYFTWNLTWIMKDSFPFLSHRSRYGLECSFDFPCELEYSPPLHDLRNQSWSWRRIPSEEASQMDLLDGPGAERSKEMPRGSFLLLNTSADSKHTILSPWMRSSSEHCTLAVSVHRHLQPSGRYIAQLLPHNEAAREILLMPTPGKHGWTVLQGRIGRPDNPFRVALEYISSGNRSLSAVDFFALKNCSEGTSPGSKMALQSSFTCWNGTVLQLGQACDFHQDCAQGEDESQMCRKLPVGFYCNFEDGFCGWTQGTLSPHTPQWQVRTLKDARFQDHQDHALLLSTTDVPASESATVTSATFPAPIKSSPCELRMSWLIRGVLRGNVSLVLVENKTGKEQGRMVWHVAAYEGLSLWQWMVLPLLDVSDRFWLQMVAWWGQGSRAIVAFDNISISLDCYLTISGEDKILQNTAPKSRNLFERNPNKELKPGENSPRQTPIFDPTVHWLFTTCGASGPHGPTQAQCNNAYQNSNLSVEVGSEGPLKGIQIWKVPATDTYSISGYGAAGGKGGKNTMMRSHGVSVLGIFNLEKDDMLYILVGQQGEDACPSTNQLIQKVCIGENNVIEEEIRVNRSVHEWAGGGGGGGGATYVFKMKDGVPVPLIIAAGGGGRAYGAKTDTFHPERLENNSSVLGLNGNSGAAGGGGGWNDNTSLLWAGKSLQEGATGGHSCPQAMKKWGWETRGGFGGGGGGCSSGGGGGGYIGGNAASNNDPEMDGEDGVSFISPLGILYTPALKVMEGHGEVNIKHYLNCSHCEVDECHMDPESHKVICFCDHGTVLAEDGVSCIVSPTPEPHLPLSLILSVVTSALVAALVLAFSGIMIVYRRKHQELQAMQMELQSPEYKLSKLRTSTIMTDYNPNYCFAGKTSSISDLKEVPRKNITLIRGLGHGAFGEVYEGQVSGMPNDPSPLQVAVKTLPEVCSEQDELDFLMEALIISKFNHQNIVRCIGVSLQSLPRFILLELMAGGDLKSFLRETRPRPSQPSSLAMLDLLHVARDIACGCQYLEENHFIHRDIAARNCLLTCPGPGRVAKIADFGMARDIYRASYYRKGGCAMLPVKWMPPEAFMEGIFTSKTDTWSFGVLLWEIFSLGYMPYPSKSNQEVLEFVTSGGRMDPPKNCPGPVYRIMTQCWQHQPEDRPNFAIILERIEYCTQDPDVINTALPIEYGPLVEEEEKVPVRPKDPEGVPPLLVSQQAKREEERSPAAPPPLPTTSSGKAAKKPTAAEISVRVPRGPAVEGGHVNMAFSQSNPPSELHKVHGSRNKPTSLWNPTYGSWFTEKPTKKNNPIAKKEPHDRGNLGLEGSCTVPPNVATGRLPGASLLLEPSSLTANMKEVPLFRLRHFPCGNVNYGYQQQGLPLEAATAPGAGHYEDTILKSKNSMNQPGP

T1 sequence (Q13547 whole entry): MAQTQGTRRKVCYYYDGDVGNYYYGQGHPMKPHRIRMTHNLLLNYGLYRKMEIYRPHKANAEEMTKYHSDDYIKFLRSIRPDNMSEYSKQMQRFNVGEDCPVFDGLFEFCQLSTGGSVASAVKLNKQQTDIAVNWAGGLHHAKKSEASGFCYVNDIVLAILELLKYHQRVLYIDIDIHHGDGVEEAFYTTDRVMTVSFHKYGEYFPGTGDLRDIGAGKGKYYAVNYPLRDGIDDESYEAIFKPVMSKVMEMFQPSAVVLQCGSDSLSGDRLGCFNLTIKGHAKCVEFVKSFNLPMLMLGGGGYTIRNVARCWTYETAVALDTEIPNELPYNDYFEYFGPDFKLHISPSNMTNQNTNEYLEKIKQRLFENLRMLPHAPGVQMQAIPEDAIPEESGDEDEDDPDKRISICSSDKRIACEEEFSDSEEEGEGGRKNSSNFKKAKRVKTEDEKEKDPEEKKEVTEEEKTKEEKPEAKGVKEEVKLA

Structure (SMILES): CC(C)NC(=O)C1CCC(n2c(=NC(=O)c3ccccc3)[nH]c3cc(C=CC(=O)NO)ccc32)CC1 [Compound 3b, (E)-N-(5-((E)-3-(Hydroxyamino)-3-oxoprop-1-en-1-yl)-1-((1S,4S)-4-(isopropylcarbamoyl)cyclohexyl)-1H-benzo[d]imidazol-2(3H)-ylidene)benzamide]
- IC50 (HDAC1): 10.8 µM
- IC50 (HDAC6): 1.03 µM
- IC50 (ALK G1269A): 0.05 µM
